Experimental data as given in article PMC8568133, “Evaluation of bisphenylthiazoles as a promising class for combating multidrug-resistant fungal infections” (PLoS ONE, 2021).
Converted amounts (≈) assume the structure as drawn. Like-named read-outs stand apart in the source and are kept apart here.

Legend:
[1] = tested on: E. coli JW55031 (tolC-mutant); experiment: microbe, parasite or virus in culture; assay type: cell-based, Escherichia coli
Experimental: (§1) The minimum inhibitory concentrations (MICs) of the tested compounds and control drugs against clinically-relevant bacterial strains were determined using the broth microdilution method, according to guidelines outlined by the Clinical and Laboratory Standards Institute (CLSI), or as described previously.
(§2) Initial screening of the bisphenylthiazoles against Gram-positive and Gram-negative bacteria. Bacterial strains, (except C. difficile that was grown anaerobically on brain heart infusion supplemented agar at 37° C for 48 hours), were grown aerobically overnight on tryptone soy agar plates at 37° C. Afterwards, a bacterial solution equivalent to 0.5 McFarland standard was prepared and diluted in cation-adjusted Mueller-Hinton broth (CAMHB) (for S. aureus, and E. coli) to achieve a bacterial concentration of about 5 × 10^5 CFU/mL. C. difficile was diluted in brain heart infusion supplemented broth, supplemented with yeast extract, hemin and vitamin K to achieve a bacterial concentration of about 5 × 10^5 CFU/mL. Compounds and control drugs were added in the first row of the 96 -well plates, and serially diluted with the corresponding media containing bacteria. Plates were then, incubated aerobi cally at 37° C for 18-20 hours (for S. aureus and E. coli). C. difficile was incubated anaerobically at 37° C for 48 hours. […]
(§3) the visual growth of bacteria.

Candida albicans = experiment: Antifungal broth microdilution MIC (50% growth inhibition) and MFC; assay type: cell-based
Experimental: (§4) Serial dilutions (from 128 μg/mL to 0.06 μg/mL) of the tested compounds and control drugs (fluconazole, itraconazole and amphotericin) (in triplicates), were screened against clinical isolates of Candida albicans, Candida auris, Candida glabrata, Candida parapsilosis, Candida tropicalis, Candida krusei, Cryptococcus neoformans, Cryptococcus gattii and Aspergillus fumigatus species using the broth microdilution method according to the Clinical and Laboratory Standards Institute guidelines. MICs were determined as the lowest concentration of the compounds that inhibited the fungal growth by 50% after incubation at 35 °C for 24 h (for Candida and Aspergillus), or 48 h (for Cryptococcus). The minimum fungicidal concentration (MFC) of these compounds was tested by plating 4 μL from wells with no growth onto YPD agar plates. The plates were incubated at 37 °C for 24 hours before recording the MFC, which was categorized as the lowest concentration that reduced fungal growth by 99.9% [45]. The experiment was repeated three independent times.

[2] = tested on: C. difficile ATCC BAA1870; experiment: Broth microdilution MIC, initial antibacterial screening (anaerobic); assay type: cell-based, Clostridioides difficile
Experimental: as §1, §2, §3

[3] = tested on: E. coli BW25113 (wild-type); experiment: Broth microdilution MIC, initial antibacterial screening; assay type: cell-based, Escherichia coli
Experimental: as §1, §2, §3

MRSA USA300 = experiment: as above; assay type: cell-based, S. aureus
Experimental: as §1, §2, §3

Candida glabrata = experiment: Antifungal broth microdilution MIC (50% growth inhibition) and MFC; assay type: cell-based; conditions: Nakaseomyces glabratus
Experimental: as §4

Candida krusei = experiment: as above; assay type: cell-based; conditions: Pichia kudriavzevii, read-out: MIC
Experimental: as §4

Candida tropicalis = experiment: as above; assay type: cell-based; conditions: Candida tropicalis, ATCC1369
Experimental: as §4

Candida auris = experiment: Checkerboard assay of compound 17 with standard antifungals; assay type: cell-based; conditions: for FICI (fractional inhibitory concentration index) / Interpretation of interaction: antifungal combined with compound 17; for MIC Combined, Antifungal: antifungal in combination with compound 17; for MIC: Candidozyma auris, checkerboard, agent alone
Experimental: To evaluate the interactions between bisphenylthiazoles and the standard antifungal agents (fluconazole, amphotericin B, 5-fluorocytosine and caspofungin) against 2 C. auris clinical isolates, a standard checkerboard assay was utilized as described in previous studies. The fractional inhibitory concentration index (FICI) was calculated for each interaction. Interactions where the FICI was ≤0.5 were categorized as synergistic (SYN). FICI values of >0.5–1.25 were categorized as additive (ADD). FICI values of >1.25–4 were categorized as indifferent, and FICI values of > 4 were categorized as antagonistic. The experiment was repeated three independent times.

Candida parapsilosis = experiment: Antifungal broth microdilution MIC (50% growth inhibition); assay type: cell-based; conditions: Lodderomyces parapsilosis, read-out: MIC
Experimental: as §4

Aspergillus fumigatus = experiment: as above; assay type: cell-based; conditions: Aspergillus fumigatus, read-out: MIC
Experimental: as §4

[4] = Candida albicans, C. albicans SS5314 (wild-type), read-out: MIC
[5] = Clostridioides difficile, ATCCBAA1870, read-out: MIC
[6] = Escherichia coli, read-out: MIC
[7] = Staphylococcus aureus, MRSA USA300, read-out: MIC
[8] = Candida auris 381 (azole-sensitive)
[9] = Candida auris 385 (azole-resistant)

Compound: Cc1nc(-c2ccc(-c3ccccc3)cc2)sc1-c1nnc(NCCO)o1 [Compound 19, 2-{[5-(2-((1,1’-Biphenyl)-4-yl)-4-methylthiazol-5-yl)-1,3,4-oxadiazol-2-yl]amino} ethan-1-ol]
- melting point: 210 to 213 °C
- MIC ([1]; Escherichia coli): > 64 µg/mL
- MIC (Candida albicans; [4]): > 64 µg/mL
- MIC [2, 5]: 64 µg/mL (≈ 169 µM)
- MIC [3, 6]: > 64 µg/mL
- MIC (MRSA USA300; [7]): > 64 µg/mL

Compound: Cc1nc(-c2ccc(-c3ccccc3)cc2)sc1-c1nnc(N2CC[C@@H](N(C)C)C2)o1 [Compound 11, (R)-1-{5-[2-((1,1’-biphenyl)-4-yl)-4-methylthiazol-5-yl]-1,3,4-oxadiazol-2-yl}-N,N-dimethylpyrrolidin-3-amine]
- melting point: 165 to 167 °C
- MIC ([1]; Escherichia coli): > 64 µg/mL
- MIC (Candida albicans; [4]): > 64 µg/mL
- MIC [2, 5]: > 64 µg/mL
- MIC [3, 6]: > 64 µg/mL
- MIC (MRSA USA300; [7]): > 64 µg/mL

Compound: Cc1nc(-c2ccc(-c3ccccc3)cc2)sc1-c1nnc(N2CCC[C@H]2CO)o1 [Compound 20, (S)-{1-[5-(2-((1,1’-Biphenyl)-4-yl)-4-methylthiazol-5-yl)-1,3,4-oxadiazol-2-yl]pyro-lidin-2-yl}methanol]
- MIC ([1]; E. coli JW55031 (tolC-mutant)): >64 µg/mL
- MIC (Candida albicans; C. albicans SS5314 (wild-type)): >64 µg/mL
- MIC [2]: 64 µg/mL (≈ 153 µM)
- MIC [3]: >64 µg/mL
- MIC (MRSA USA300; MRSA USA300): >64 µg/mL

Compound: CC[C@H](C)C[C@H](C)CCCCCCCCC(=O)N[C@H]1C[C@@H](O)[C@@H](NCCN)NC(=O)[C@@H]2[C@@H](O)CCN2C(=O)[C@H]([C@H](O)CCN)NC(=O)[C@H]([C@H](O)[C@@H](O)c2ccc(O)cc2)NC(=O)[C@@H]2C[C@@H](O)CN2C(=O)[C@H]([C@@H](C)O)NC1=O [Caspofungin]
- MIC (Candida glabrata): 0.125 µg/mL (≈ 0.114 µM)
- MIC (Candida glabrata; ATCC66032, C. glabrata ATCC 66032, read-out: MIC): 0.25 µg/mL (≈ 0.229 µM)
- MIC (Candida krusei; ATCC34135, C. krusei ATCC 34135): 0.5 µg/mL (≈ 0.457 µM)
- MIC (Candida krusei; C. krusei CAB 396420): 0.5 µg/mL (≈ 0.457 µM)
- MIC (Candida tropicalis): 0.125 µg/mL (≈ 0.114 µM)
- MIC (Candida albicans; Candida albicans, ATCC10231): 0.125 µg/mL (≈ 0.114 µM)
- MIC (Candida albicans; Candida albicans, C. albicans NR-29448 (fluconazole-resistant), read-out: MIC): 0.25 µg/mL (≈ 0.229 µM)
- FICI (fractional inhibitory concentration index) (Candida auris; [8]): 1.250
- Interpretation of interaction (Candida auris; [8]): ADD (FICI values of >0.5–1.25 were categorized as additive (ADD))
- MIC Combined, Antifungal (Candida auris; [8]): 0.5 µg/mL
- FICI (fractional inhibitory concentration index) (Candida auris; [9]): 1.125
- Interpretation of interaction (Candida auris; [9]): ADD (FICI values of >0.5–1.25 were categorized as additive (ADD))
- MIC Combined, Antifungal (Candida auris; [9]): 0.063 µg/mL
- MIC (Candida auris; [8]): 0.5 µg/mL
- MIC (Candida auris; [9]): 0.063 µg/mL
- MIC (Candida parapsilosis; ATCC22019, C. parapsilosis ATCC 22019): 0.5 µg/mL (≈ 0.457 µM)
- MIC (Candida parapsilosis; C. parapsilosis CAB 502638): 0.5 µg/mL (≈ 0.457 µM)

Compound: CN[C@H](CC(C)C)C(=O)N[C@H]1C(=O)N[C@@H](CC(N)=O)C(=O)N[C@H]2C(=O)N[C@H]3C(=O)N[C@H](C(=O)N[C@H](C(=O)O)c4cc(O)cc(O)c4-c4cc3ccc4O)[C@H](O)c3ccc(c(Cl)c3)Oc3cc2cc(c3O[C@@H]2O[C@H](CO)[C@@H](O)[C@H](O)[C@H]2O[C@H]2C[C@](C)(N)[C@H](O)[C@H](C)O2)Oc2ccc(cc2Cl)[C@H]1O [Vancomycin, reference compound]
- MIC (MRSA USA300; Staphylococcus aureus): 1 µg/mL (≈ 0.69 µM)

Compound: Cc1nc(-c2ccc(-c3ccccc3)cc2)sc1-c1nnc(NCCN(C)C)o1 [Compound 8, N-{5-[2-((1,1’-Biphenyl)-4-yl)-4-methylthiazol-5-yl]-1,3,4-oxadiazol-2-yl}-N,N-dimethylethane-1,2-diamine]
- MIC ([1]; E. coli JW55031 (tolC-mutant)): 16 µg/mL (≈ 39.5 µM)
- MIC (Candida albicans; C. albicans SS5314 (wild-type)): 16 µg/mL (≈ 39.5 µM)
- MIC [2]: 16 µg/mL (≈ 39.5 µM)
- MIC [3]: 64 µg/mL (≈ 158 µM)
- MIC (MRSA USA300; MRSA USA300): 32 µg/mL (≈ 78.9 µM)

Compound: Cc1nc(-c2ccc(-c3ccccc3)cc2)sc1-c1nnc(N2CCC[C@@H]2CO)o1 [Compound 21, (R)-{1-[5-(2-((1,1’-Biphenyl)-4-yl)-4-methylthiazol-5-yl)-1,3,4-oxadiazol-2-yl]pyro-lidin-2-yl}tmethanol]
- MIC ([1]; E. coli JW55031 (tolC-mutant)): >64 µg/mL
- MIC (Candida albicans; C. albicans SS5314 (wild-type)): >64 µg/mL
- MIC [2]: >64 µg/mL
- MIC [3]: >64 µg/mL
- MIC (MRSA USA300; MRSA USA300): >64 µg/mL

Compound: CC(=O)NC[C@H]1CN(c2ccc(N3CCOCC3)c(F)c2)C(=O)O1 [Linezolid, reference compound]
- MIC ([1]; Escherichia coli): 8 µg/mL (≈ 23.7 µM)
- MIC [2, 5]: 1 µg/mL (≈ 2.96 µM)
- MIC [3, 6]: > 64 µg/mL
- MIC (MRSA USA300; [7]): 1 µg/mL (≈ 2.96 µM)

Compound: Cc1nc(-c2ccc(-c3ccccc3)cc2)sc1-c1nnc(N2CCC[C@H]2C(N)=O)o1 [Compound 13, (S)-1-{5-[2-((1,1’-biphenyl)-4-yl)-4-methylthiazol-5-yl]-1,3,4-oxadiazol-2-yl}pyro-lidine-2-carboxamide]
- MIC ([1]; E. coli JW55031 (tolC-mutant)): >64 µg/mL
- MIC (Candida albicans; C. albicans SS5314 (wild-type)): >64 µg/mL
- MIC [2]: >64 µg/mL
- MIC [3]: >64 µg/mL
- MIC (MRSA USA300; MRSA USA300): >64 µg/mL

Compound: Nc1nc(=O)[nH]cc1F [5-Fluorocytosine]
- FICI (fractional inhibitory concentration index) (Candida auris; [8]): 1.250
- Interpretation of interaction (Candida auris; [8]): ADD (FICI values of >0.5–1.25 were categorized as additive (ADD))
- MIC Combined, Antifungal (Candida auris; [8]): 0.125 µg/mL
- FICI (fractional inhibitory concentration index) (Candida auris; [9]): 1.125
- Interpretation of interaction (Candida auris; [9]): ADD (FICI values of >0.5–1.25 were categorized as additive (ADD))
- MIC Combined, Antifungal (Candida auris; [9]): 0.25 µg/mL
- MIC (Candida auris; [8]): 0.125 µg/mL
- MIC (Candida auris; [9]): 0.25 µg/mL

Compound: CNC(C)C1CCC(N)C(OC2C(N)CC(N)C(OC3OCC(C)(O)C(NC)C3O)C2O)O1 (stereo not shown) [Gentamicin, reference compound]
- MIC ([1]; Escherichia coli): ≤ 0.5 µg/mL
- MIC [3, 6]: ≤ 0.5 µg/mL

Compound: CCC(C)n1ncn(-c2ccc(N3CCN(c4ccc(OCC5COC(Cn6cncn6)(c6ccc(Cl)cc6Cl)O5)cc4)CC3)cc2)c1=O (stereo not shown) [Itraconazole, reference compound]
- MIC (Aspergillus fumigatus; A. fumigatus NR 35303): 1 µg/mL (≈ 1.42 µM)
- MIC (Aspergillus fumigatus; A. fumigatus NR 35304): 1 µg/mL (≈ 1.42 µM)

Compound: Cc1nc(-c2ccc(-c3ccccc3)cc2)sc1-c1nnc(NCC(=N)N)o1 [Compound 9, 2-{[5-(2-((1,1’-biphenyl)-4-yl)-4-methylthiazol-5-yl)-1,3,4-oxadiazol-2-yl]amino} acetimidamide]
- MIC ([1]; E. coli JW55031 (tolC-mutant)): >64 µg/mL
- MIC (Candida albicans; C. albicans SS5314 (wild-type)): >64 µg/mL
- MIC [2]: >64 µg/mL
- MIC [3]: >64 µg/mL
- MIC (MRSA USA300; MRSA USA300): >64 µg/mL

Compound: Cc1nc(-c2ccc(-c3ccccc3)cc2)sc1-c1nnc(N2CCC[C@@H]2C(N)=O)o1 [Compound 14, (R)-1-{5-[2-((1,1’-biphenyl)-4-yl)-4-methylthiazol-5-yl]-1,3,4-oxadiazol-2-yl}pyro-lidine-2-carboxamide]
- MIC ([1]; E. coli JW55031 (tolC-mutant)): >64 µg/mL
- MIC (Candida albicans; C. albicans SS5314 (wild-type)): >64 µg/mL
- MIC [2]: 64 µg/mL (≈ 148 µM)
- MIC [3]: >64 µg/mL
- MIC (MRSA USA300; MRSA USA300): >64 µg/mL
